Reference: article PMC4774911, “Biochemical Screening of Five Protein Kinases from Plasmodium falciparum against 14,000 Cell-Active Compounds” (PLoS ONE, 2016)
Where “and” joins values, the source holds several entries; their conditions need not be identical. Identical values can stand only once.

Legend:
CSNK2A2 = CSNK2A2 (Homo sapiens, UniProt P19784); assay: biochemical; set-up: endogenous in cells; host or cells: K562 cell extract; species or system K562 (extract); replicate k of n = 2 (each experiment ID is one independent experiment; two experiment IDs per compound); details: read-out: KDapp
CSNK2A2, sequence (P19784 whole entry): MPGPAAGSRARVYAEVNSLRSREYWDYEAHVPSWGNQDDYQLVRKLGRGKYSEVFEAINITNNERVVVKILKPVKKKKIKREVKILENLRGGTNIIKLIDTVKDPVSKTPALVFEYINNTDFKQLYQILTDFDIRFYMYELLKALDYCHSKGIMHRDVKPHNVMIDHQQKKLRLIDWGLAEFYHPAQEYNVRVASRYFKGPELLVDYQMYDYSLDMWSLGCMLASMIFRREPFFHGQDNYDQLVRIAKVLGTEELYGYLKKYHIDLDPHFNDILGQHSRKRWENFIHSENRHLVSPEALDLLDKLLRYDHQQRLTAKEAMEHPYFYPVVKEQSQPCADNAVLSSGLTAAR

MAPK6 = MAPK6 (Homo sapiens, UniProt Q16659); assay: biochemical; set-up: endogenous in cells; host or cells: K562 cell extract; species or system K562 (extract); replicate k of n = 2 (each experiment ID is one independent experiment; two experiment IDs per compound); details: read-out: KDapp
MAPK6, sequence (Q16659 whole entry): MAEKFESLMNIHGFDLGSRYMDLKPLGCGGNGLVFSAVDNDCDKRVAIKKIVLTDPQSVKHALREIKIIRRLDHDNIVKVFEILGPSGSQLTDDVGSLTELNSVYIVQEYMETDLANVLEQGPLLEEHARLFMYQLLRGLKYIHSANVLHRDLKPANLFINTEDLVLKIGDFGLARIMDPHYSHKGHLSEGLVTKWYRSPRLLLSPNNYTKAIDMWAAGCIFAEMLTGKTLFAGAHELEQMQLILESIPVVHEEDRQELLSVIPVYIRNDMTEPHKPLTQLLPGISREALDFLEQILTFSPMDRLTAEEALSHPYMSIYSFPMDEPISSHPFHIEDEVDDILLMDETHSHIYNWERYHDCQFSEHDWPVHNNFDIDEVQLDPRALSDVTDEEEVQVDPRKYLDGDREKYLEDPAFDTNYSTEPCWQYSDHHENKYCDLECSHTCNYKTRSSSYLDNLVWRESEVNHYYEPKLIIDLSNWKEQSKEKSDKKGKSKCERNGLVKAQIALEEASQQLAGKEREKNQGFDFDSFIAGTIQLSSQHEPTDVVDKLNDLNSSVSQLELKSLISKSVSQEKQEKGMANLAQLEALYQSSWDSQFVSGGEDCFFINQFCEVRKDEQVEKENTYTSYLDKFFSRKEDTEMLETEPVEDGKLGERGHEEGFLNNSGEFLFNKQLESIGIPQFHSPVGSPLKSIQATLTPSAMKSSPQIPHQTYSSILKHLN

TAOK1 = TAOK1 (Homo sapiens, UniProt Q7L7X3); assay: biochemical; set-up: endogenous in cells; host or cells: K562 cell extract; species or system K562 (extract); replicate k of n = 2 (each experiment ID is one independent experiment; two experiment IDs per compound); details: read-out: KDapp
TAOK1, sequence (Q7L7X3 whole entry): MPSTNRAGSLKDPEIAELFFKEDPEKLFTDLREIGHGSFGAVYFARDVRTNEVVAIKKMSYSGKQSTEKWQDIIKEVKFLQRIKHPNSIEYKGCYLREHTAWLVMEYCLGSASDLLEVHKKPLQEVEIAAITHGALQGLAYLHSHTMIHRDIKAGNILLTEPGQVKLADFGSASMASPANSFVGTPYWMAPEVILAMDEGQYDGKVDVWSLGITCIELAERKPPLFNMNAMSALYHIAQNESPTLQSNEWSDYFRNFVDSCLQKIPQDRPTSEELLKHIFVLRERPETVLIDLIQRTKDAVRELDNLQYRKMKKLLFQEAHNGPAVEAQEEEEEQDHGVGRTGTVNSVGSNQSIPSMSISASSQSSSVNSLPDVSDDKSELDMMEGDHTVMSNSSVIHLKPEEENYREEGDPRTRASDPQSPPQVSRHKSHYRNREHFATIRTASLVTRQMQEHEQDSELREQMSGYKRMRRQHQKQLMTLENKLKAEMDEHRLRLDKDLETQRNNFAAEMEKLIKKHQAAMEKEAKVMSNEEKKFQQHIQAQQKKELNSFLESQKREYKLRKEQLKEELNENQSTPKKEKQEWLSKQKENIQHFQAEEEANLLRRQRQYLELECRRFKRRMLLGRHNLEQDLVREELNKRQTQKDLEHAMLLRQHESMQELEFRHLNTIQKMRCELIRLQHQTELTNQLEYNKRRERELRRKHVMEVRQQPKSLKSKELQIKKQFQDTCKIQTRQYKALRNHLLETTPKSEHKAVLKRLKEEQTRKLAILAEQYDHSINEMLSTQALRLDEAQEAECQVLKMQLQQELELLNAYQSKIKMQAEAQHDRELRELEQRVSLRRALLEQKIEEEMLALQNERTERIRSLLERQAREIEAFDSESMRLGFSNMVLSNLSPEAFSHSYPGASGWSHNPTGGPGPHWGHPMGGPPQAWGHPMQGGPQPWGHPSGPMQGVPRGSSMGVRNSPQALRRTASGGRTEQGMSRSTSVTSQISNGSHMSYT

[1] = molecular target: T1, Plasmodium falciparum calcium-dependent protein kinase 4 (CDPK4) (Plasmodium falciparum, UniProt Q8IBS5); assay: CDPK4 Kinase-Glo ATP-consumption screen and dose-response; type: biochemical; details: hits below 1 uM
T1 construct: 6-Histidine (N); made in house
T1 sequence (Q8IBS5 1-528): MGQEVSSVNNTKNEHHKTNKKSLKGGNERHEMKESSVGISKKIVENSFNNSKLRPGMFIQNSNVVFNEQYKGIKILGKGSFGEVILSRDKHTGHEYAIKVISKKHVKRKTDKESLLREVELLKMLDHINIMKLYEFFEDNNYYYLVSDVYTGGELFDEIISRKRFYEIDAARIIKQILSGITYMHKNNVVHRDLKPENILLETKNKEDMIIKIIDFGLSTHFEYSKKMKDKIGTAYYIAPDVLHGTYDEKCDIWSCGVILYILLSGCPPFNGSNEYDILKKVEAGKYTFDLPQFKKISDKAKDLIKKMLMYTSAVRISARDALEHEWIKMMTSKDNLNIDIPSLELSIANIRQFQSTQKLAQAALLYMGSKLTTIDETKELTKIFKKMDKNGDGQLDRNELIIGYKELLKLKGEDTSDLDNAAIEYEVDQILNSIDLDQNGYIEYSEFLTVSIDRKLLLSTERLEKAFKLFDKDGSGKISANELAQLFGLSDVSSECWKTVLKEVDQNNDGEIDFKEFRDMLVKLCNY
How it was run: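 ATP consumption by recombinant P. falciparum CDPK4 or CDPK1 measured as residual ATP by Kinase-Glo luminescence, with 40 μM Syntide-2 substrate and 90 min incubation stopped with 5 mM EGTA. Single-point screen at 1 μM final, followed by dose-response; no-substrate wells as negative control.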

CAMK2D = CAMK2D (Homo sapiens, UniProt Q13557); assay: biochemical; set-up: endogenous in cells; host or cells: K562 cell extract; species or system K562 (extract); replicate k of n = 2 (each experiment ID is one independent experiment; two experiment IDs per compound); details: read-out: KDapp
CAMK2D, sequence (Q13557 whole entry): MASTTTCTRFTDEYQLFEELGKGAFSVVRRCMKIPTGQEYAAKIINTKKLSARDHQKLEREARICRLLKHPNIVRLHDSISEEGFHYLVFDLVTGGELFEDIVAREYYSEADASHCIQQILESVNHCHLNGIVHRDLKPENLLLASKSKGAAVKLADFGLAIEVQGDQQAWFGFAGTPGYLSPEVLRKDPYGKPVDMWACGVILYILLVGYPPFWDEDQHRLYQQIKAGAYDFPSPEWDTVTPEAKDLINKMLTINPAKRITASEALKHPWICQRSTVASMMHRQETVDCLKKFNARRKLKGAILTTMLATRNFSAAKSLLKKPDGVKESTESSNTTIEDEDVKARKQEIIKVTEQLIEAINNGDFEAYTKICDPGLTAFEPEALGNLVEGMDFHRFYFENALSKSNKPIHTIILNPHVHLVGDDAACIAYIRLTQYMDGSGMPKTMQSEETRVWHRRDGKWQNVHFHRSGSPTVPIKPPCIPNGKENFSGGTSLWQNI

OXSR1 = OXSR1 (Homo sapiens, UniProt O95747); assay: biochemical; set-up: endogenous in cells; host or cells: K562 cell extract; species or system K562 (extract); replicate k of n = 2 (each experiment ID is one independent experiment; two experiment IDs per compound); details: read-out: KDapp
OXSR1, sequence (O95747 whole entry): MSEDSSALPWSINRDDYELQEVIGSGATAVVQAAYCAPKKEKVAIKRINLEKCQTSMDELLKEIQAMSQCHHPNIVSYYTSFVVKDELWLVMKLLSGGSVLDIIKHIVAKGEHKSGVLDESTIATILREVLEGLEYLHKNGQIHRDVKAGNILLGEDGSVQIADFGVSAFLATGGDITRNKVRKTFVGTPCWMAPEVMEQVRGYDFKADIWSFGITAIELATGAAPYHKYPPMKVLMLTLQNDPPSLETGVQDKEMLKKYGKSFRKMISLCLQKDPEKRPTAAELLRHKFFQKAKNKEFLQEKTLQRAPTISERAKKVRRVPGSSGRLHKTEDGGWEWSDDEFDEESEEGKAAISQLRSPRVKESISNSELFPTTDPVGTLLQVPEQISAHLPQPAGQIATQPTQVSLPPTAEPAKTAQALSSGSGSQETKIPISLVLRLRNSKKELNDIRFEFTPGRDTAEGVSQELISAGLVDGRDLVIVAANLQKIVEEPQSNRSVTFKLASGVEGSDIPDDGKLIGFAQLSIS

PIP4K2C = molecular target: T2, PIP4K2C (Homo sapiens, UniProt Q8TBX8); assay: biochemical; set-up: endogenous in cells; host or cells: K562 cell extract; species or system K562 (extract); replicate k of n = 2 (each experiment ID is one independent experiment; two experiment IDs per compound); details: read-out: KDapp
T2 sequence (Q8TBX8 1-421): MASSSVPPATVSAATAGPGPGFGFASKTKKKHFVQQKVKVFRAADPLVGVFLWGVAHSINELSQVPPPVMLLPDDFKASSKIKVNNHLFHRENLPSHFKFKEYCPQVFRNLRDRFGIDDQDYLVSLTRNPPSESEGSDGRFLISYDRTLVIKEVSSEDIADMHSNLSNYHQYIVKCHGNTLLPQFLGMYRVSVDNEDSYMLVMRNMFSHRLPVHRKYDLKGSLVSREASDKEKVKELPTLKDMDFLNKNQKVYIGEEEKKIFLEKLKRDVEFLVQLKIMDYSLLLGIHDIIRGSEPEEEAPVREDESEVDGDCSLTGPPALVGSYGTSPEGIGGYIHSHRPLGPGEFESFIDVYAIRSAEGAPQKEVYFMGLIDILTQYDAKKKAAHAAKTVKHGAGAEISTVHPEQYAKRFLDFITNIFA

RPS6KA1 = RPS6KA1 (Homo sapiens, UniProt Q15418); assay: biochemical; set-up: endogenous in cells; host or cells: K562 cell extract; species or system K562 (extract); replicate k of n = 2 (each experiment ID is one independent experiment; two experiment IDs per compound); details: read-out: KDapp
RPS6KA1, sequence (Q15418 whole entry): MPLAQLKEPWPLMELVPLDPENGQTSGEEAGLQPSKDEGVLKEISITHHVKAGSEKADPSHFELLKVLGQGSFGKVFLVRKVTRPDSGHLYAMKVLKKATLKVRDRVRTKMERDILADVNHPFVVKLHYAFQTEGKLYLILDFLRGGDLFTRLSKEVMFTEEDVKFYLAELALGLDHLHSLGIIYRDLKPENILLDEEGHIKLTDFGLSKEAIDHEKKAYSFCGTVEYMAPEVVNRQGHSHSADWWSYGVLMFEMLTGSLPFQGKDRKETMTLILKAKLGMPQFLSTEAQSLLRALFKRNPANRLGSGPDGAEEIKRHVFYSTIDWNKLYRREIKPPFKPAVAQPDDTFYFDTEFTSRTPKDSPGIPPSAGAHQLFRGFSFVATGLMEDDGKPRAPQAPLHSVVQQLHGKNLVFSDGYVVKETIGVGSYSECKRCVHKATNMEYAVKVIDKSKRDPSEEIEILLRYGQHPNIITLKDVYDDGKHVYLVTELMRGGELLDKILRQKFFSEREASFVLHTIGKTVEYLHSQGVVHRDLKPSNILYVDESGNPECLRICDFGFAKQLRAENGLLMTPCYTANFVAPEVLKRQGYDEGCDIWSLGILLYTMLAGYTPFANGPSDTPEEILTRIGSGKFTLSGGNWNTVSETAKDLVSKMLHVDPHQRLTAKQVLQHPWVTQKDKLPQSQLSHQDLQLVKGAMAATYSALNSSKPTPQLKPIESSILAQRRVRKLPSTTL

STK38 = STK38 (Homo sapiens, UniProt Q15208); assay: biochemical; set-up: endogenous in cells; host or cells: K562 cell extract; species or system K562 (extract); replicate k of n = 2 (each experiment ID is one independent experiment; two experiment IDs per compound); details: read-out: KDapp
STK38, sequence (Q15208 whole entry): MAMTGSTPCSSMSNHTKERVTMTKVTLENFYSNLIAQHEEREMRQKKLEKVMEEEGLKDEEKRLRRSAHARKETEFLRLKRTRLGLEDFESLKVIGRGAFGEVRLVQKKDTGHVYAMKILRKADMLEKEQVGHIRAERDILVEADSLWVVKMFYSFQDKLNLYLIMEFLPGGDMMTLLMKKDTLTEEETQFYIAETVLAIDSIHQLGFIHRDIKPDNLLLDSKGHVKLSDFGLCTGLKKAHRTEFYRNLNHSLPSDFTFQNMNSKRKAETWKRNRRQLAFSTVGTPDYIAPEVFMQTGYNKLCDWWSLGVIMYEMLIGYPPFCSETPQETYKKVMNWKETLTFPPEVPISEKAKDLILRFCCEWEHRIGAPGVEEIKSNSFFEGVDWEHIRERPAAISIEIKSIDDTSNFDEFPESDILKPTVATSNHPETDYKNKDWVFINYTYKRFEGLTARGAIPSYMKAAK

Compound	Kd (CSNK2A2)	Kd (MAPK6) [nM]	Kd (TAOK1) [nM]	IC50 [1] [nM]	Kd (CAMK2D)	Kd (OXSR1)	Kd (PIP4K2C)	Kd (RPS6KA1) [nM]	Kd (STK38)
CN(C)CC(O)COc1ccc(Nc2ncc([N+](=O)[O-])c(Nc3ccccc3O)n2)cc1.O=C(O)C(F)(F)F (stereo not drawn) [TCMDC-141399]	33.3 nM and 26.8 nM	248	4300	–	–	–	–	–	–
CN1CCN(c2ccc(Nc3ncc(C#N)c(Nc4ccccc4C(N)=O)n3)cc2)CC1.Cl [TCMDC-134116]	–	–	–	188	323 nM and 163 nM	73 nM and 117 nM	691 nM and 713 nM	96	306 nM and 253 nM
